This passage reports IC50 results from patent publication US20090076009A1, “THIAZOLE DERIVATIVES AND THEIR USE AS ANTI-TUMOUR AGENTS” (priority 2006, published 2009).

Assay [1] deals with phosphorylation of Serine 473 in Akt in MDA-MB-468 human breast adenocarcinoma cell line. The assay can be described thus: In Vitro Phospho-Ser473 Akt Assay. The assay is classed as cell-based. Particulars: Test (c), MDA-MB-468 cells, read-out: IC50, inhibition of phosphorylation of Serine 473 in Akt. The method, then: (c) In Vitro Phospho-Ser473 Akt Assay
This assay determines the ability of test compounds to inhibit phosphorylation of Serine 473 in Akt as assessed using Acumen Explorer technology (TTP LabTech Limited, Royston, Herts, SG8 6EE, UK), a plate reader that can be used to rapidly quantitate features of images generated by laser-scanning.
A MDA-MB-468 human breast adenocarcinoma cell line (LGC Promochem, Teddington, Middlesex, UK, Catalogue No. HTB-132) was routinely maintained at 37° C. with 5% CO2 up to a confluency of 70-90% in DMEM containing 10% FCS and 1% L-glutamine.
For the assay, the cells were detached from the culture flask using ‘Accutase’ (Innovative Cell Technologies Inc., San Diego, Calif., USA; Catalogue No. AT104) using standard tissue culture methods and resuspended in media to give 5.5×10^4 cells per ml. Aliquots (90 μl) were seeded into each of the inner 60 wells of a black ‘Costar’ 96-well plate (Corning Inc., NY, USA; Catalogue No. 3904) to give a density of 5000 cells per well. Aliquots (90 μl) of culture media were placed in the outer wells to prevent edge effects. [An alternative cell handling procedure involved the maintenance of the cells in a ‘SelecT’ robotic device (The Automation Partnership, Royston, Herts SG8 5WY, UK). Cells were resuspended in media to give 5×10^4 cells per ml. Aliquots (100 μl) were seeded into the wells of a black ‘Costar’ 96-well plate.] […]

For assay [2], the target named is mTOR PI kinase-related kinase (Homo sapiens, UniProt P42345). The assay is described as follows: In Vitro mTOR PI kinase-related Kinase Assay (AlphaScreen). The assay is classed as biochemical. The settings on record: Test (b); read-out: IC50 versus mTOR PI kinase-related kinase. On the procedure:
(b) In Vitro mTOR PI kinase-related Kinase Assay The assay used AlphaScreen technology (Gray et al., Analytical Biochemistry, 2003, 313: 234-245) to determine the ability of test compounds to inhibit phosphorylation by recombinant mTOR. […]
Each reaction was stopped by the addition of 10 μl of a mixture of EDTA (50 mM), bovine serum albumin (BSA; 0.5 mg/ml) and Tris-HCl pH7.4 buffer (50 mM) containing p70 S6 Kinase (T389) IA5 Monoclonal Antibody (Cell Signalling Technology, Catalogue No. 9206B) and AlphaScreen Streptavidin donor and Protein A acceptor beads (200 ng; Perkin Elmer, Catalogue No. 6760002B and 6760137R respectively) were added and the assay plates were left for about 20 hours at room temperature in the dark. The resultant signals arising from laser light excitation at 680 nm were read using a Packard Envision instrument.
Phosphorylated biotinylated peptide is formed in situ as a result of mTOR mediated phosphorylation. […] Upon laser light excitation at 680 nm, the donor bead: acceptor bead complex produces a signal that can be measured. […] In the presence of an mTOR kinase inhibitor, signal strength is reduced. mTOR enzyme inhibition for a given test compound was expressed as an IC50 value.
(Alpha assays give light when donor and acceptor beads are brought close together.)

The target in the next assay is T1, p110α Type Ia human PI3K (Homo sapiens, UniProt P42336).
T1 construct: full length DNA of each of the p110α, p110β and p110δ Type Ia human PI3K p110 isoforms; 6-His; made in house; Grp1 PH domain in E. coli
The assay can be described thus: In Vitro PI3K Enzyme Assay (AlphaScreen). The assay is classed as biochemical. Particulars: Test (a); read-out: IC50 versus p110α Type Ia human PI3K. The text has this:
(a) In Vitro PI3K Enzyme Assay
The assay used AlphaScreen technology (Gray et al., Analytical Biochemistry, 2003, 313: 234-245) to determine the ability of test compounds to inhibit phosphorylation by recombinant Type I PI3K enzymes of the lipid PI(4,5)P2.
DNA fragments encoding human PI3K catalytic and regulatory subunits were isolated from cDNA libraries using standard molecular biology and PCR cloning techniques. The selected DNA fragments were used to generate baculovirus expression vectors. In particular, full length DNA of each of the p110α, p110β and p110δ Type Ia human PI3K p110 isoforms (EMBL Accession Nos. HSU79143, S67334, Y10055 for p110α, p110β and p110δ respectively) were sub-cloned into a pDEST10 vector (Invitrogen Limited, Fountain Drive, Paisley, UK). The vector is a Gateway-adapted version of Fastbac1 containing a 6-His epitope tag. […]
Each reaction was stopped by the addition of 10 μl of a mixture of EDTA (100 mM), bovine serum albumin (BSA, 0.045%) and Tris-HCl pH7.6 buffer (40 mM). […] The resultant signals arising from laser light excitation at 680 nm were read using a Packard AlphaQuest instrument. […]

T1 sequence (P27986 whole entry, the tested form may be a part, canonical isoform): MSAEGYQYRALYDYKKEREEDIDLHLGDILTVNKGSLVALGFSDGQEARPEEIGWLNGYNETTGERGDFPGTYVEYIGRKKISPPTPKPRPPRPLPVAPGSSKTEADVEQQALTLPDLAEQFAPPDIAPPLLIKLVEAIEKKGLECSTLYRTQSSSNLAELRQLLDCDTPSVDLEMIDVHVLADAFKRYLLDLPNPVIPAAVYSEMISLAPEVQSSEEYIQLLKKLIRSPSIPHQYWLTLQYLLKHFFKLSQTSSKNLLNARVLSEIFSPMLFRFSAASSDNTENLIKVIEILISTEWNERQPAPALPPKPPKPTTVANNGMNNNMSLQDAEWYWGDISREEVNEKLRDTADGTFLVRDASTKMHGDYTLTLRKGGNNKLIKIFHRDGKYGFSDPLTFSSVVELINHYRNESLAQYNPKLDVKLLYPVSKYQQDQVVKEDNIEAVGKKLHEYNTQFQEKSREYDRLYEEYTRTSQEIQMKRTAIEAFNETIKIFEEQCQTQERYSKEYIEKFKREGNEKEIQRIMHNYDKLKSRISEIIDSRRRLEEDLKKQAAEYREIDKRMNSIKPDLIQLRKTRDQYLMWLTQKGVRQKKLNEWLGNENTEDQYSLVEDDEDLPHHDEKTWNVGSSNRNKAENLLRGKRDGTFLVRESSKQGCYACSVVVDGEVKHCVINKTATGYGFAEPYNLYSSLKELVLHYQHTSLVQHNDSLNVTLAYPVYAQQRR
T1 sequence (P42336 whole entry, the tested form may be a part, canonical isoform): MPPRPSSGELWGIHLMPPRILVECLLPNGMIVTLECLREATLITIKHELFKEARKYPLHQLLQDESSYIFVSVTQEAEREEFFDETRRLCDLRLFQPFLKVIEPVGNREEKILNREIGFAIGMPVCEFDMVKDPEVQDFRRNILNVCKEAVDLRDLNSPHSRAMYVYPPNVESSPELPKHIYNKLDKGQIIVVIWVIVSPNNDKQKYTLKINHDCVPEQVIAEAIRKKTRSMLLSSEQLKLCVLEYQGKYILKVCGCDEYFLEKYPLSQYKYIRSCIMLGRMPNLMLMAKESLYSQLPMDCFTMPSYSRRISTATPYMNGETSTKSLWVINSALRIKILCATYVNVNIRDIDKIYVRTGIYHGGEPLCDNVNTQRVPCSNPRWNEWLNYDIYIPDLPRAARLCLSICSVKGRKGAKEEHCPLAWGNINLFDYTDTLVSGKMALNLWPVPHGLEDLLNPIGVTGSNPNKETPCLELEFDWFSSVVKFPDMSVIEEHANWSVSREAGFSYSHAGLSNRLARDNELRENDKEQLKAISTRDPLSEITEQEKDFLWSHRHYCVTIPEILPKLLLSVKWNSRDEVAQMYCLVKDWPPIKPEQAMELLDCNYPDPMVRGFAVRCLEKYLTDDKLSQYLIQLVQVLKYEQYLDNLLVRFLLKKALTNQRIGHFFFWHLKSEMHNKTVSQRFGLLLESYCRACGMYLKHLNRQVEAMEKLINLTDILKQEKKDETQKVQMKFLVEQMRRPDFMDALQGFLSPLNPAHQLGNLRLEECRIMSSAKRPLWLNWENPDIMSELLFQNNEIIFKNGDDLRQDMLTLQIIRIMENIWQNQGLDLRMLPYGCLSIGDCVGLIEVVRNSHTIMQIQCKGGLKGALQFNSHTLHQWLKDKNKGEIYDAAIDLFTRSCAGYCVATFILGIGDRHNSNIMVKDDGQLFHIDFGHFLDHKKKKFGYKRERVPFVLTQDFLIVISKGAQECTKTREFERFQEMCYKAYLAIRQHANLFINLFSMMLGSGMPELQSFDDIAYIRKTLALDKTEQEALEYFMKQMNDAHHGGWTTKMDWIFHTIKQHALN
Sequence of mTOR PI kinase-related kinase (P42345 1362-2549): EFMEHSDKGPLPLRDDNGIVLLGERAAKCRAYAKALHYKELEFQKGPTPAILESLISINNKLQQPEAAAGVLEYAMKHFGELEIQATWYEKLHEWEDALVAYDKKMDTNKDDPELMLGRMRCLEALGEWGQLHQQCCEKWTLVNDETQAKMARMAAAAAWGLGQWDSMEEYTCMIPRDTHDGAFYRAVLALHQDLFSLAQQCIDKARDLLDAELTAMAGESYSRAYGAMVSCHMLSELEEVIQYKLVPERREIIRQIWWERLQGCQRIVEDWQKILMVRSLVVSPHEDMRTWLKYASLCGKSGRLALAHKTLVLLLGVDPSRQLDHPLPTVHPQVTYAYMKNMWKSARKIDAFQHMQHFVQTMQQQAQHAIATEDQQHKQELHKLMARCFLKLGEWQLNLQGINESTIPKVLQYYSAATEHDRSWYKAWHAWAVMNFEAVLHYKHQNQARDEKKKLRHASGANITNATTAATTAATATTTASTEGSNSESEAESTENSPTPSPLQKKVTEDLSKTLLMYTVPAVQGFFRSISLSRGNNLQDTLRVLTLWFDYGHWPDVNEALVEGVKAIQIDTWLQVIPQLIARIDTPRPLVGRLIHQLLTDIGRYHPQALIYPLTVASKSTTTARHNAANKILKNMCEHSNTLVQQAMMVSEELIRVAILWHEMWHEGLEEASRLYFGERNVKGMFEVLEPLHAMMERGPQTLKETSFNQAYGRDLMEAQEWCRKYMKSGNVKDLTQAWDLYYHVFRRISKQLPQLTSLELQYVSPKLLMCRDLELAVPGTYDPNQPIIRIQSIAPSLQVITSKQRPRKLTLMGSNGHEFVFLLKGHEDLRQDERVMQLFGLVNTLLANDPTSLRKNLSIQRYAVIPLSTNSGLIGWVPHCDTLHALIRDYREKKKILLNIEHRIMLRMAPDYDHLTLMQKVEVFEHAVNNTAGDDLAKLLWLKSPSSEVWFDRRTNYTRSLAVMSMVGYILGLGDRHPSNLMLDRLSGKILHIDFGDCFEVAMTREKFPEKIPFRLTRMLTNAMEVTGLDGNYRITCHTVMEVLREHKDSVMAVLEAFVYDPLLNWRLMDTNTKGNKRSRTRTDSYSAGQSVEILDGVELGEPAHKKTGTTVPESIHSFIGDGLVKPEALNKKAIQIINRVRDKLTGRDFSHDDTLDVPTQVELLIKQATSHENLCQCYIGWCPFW

A word on the IC50: it is the concentration that gives 50% inhibition. On to `CC(=O)Nc1ncc(-c2cc(NS(=O)(=O)c3ccccc3)cnc2C)s1` [Example 1, N-[5-(5-benzenesulphonamido-2-methylpyridin-3-yl)thiazol-2-yl]acetamide], for which the 50% inhibitory concentration (IC50) in assay [1] is roughly 10 µM; in assay [2] it was roughly 0.5 µM; at p110α Type Ia human PI3K it was roughly 5 µM.
